{
  "source": "patent US20210040089A1",
  "about": "“KRAS MUTANT PROTEIN INHIBITORS” (Jacobio Pharmaceuticals Co., Ltd., priority 2019, published 2021)",
  "key": {"[1]": {"system": "NCI-H1373 cells", "test": "NCI-H1373 xenograft model", "format": "in vivo, female BALB/c mice", "conditions": "for TGI % / Tumor volume at the end (Day 22): Day 22", "procedure": "4. NCI-H1373 xenograft model\nNCI-H1373 cells (5.0E+06 cells) were injected subcutaneously into the right flank of female BALB/c mice (6-8 weeks) in a mixture with Matrigel (BD Bioscience). Mice were monitored daily and caliper measurements began when tumors became visible. Tumor volume was calculated by measuring two perpendicular diameters using the following formula: (L*w^2)/2 in which L and w refer to the length and width tumor diameter, respectively. When the average tumor volume reached 150-200 mm^3, mice were grouped (n=6/group) and treated with compounds. Tumor volume and mice weight was measured twice a week during treatment (˜3 weeks). Tumor growth inhibition rates were calculated by TGI %=(1−(Vt−Vt0)/(Vc−Vc0))*100%, where Vc, Vt are the mean tumor volume of control and treated groups at the end of the study, and Vc0 and Vt0 are the mean tumor volume of control and treated groups at the start."}, "[2]": {"system": "Phospho-ERK1/2(THR202/TYR204) in NCI-H358 cells express KRAS G12C", "test": "Phospho-ERK1/2(THR202/TYR204) HTRF assay", "format": "cell-based", "conditions": "Homo sapiens; NCI-H358, 2 hours incubation; read-out: p-ERK inhibition in NCI-H358 IC50", "in_short": "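Compounds applied to attached cells for 2 h at 37 °C in RPMI 1640 with 0.1% FBS. Lysate phospho-ERK1/2 detected by HTRF after 4 h antibody incubation at 25 °C; IC50 from 4-parameter logistic fit.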"}, "[3]": {"target": "T1, KRAS G12C (Homo sapiens, UniProt P01116, G12C)", "T1 construct": "HIS-KRAS (G12C, aa 2-185, Sino biological); purchased Sino biological", "T1 sequence (P01116 2-185 isoform P01116-2 G12C)": "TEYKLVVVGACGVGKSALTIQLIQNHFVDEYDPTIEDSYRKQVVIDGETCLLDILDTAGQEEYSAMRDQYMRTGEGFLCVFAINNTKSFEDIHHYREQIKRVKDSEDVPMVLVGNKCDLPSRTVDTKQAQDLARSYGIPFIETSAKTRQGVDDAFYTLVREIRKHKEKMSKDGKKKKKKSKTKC", "test": "SOS1 catalyzed nucleotide exchange assay (TR-FRET)", "format": "biochemical", "conditions": "GDP-loaded HIS-KRAS(G12C), 1 hour pre-incubation with compound", "in_short": "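EDTA-stripped, GDP-loaded His-KRAS G12C (aa 2-185; 3 nM final) preincubated 1 h with compound, then SOS1 ExD (aa 564-1049; 2 μM) and BODIPY-FL GTP (80 nM) added for 4 h at 25 °C. TR-FRET via anti-His Tb cryptate (515/486 nm ratio); IC50 from 4-parameter logistic fit.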"}, "[4]": {"system": "NCI-H358 cells express KRAS G12C", "test": "Cell growth inhibition assay (CCK-8)", "format": "cell-based", "conditions": "Homo sapiens, 144 h; NCI-H358, 6 days incubation", "in_short": "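Antiproliferative read-out: KRAS G12C-mutant NCI-H358 lung cancer cells (3000/well) exposed to compounds in RPMI 1640 with 10% FBS for 6 days at 37°C. Viability by CCK-8 (OD450) after 1.5-2 h; IC50 from 4-parameter logistic fit.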"}},
  "data": [
    {"smiles": "C=CC(=O)N1CCN(c2nc(OCC3(CN4CCCC4)CC3)nc3c2CCN(c2cccc4cccc(C)c24)C3)CC1CC#N", "note": "(centres unmarked) [Compound 56, 2-(1-acryloyl-4-(7-(8-methylnaphthalen-1-yl)-2-((1-(pyrrolidin-1-ylmethyl)cyclopropyl)methoxy)-5,6,7,8-tetrahydropyrido[3,4-d]pyrimidin-4-yl)piperazin-2-yl)acetonitrile]", "values": [
      {"measurement": "TGI %", "setting": "[1]; Table 2, 10 mg/kg, BID", "value": 102.5, "unit": "%"},
      {"measurement": "Tumor volume at the end (Day 22)", "setting": "[1]; Table 2, 10 mg/kg, BID", "value": 148, "unit": "mm^3"},
      {"measurement": "Tumor volume at the start", "setting": "[1]; Table 2, 10 mg/kg, BID", "value": 191, "unit": "mm^3"},
      {"measurement": "IC50", "setting": "[2]", "value": 0.0382, "unit": "µM"},
      {"measurement": "IC50", "setting": "[3]", "value": 0.00319, "unit": "µM"},
      {"measurement": "IC50", "setting": "[4]", "value": 0.0224, "unit": "µM"}
    ]},
    {"smiles": "C=CC(=O)N1CCN(c2nc(OCC3(CN4CCCC4)CC3)nc3c2CCN(c2cccc4cccc(C)c24)C3)C[C@@H]1CC#N", "note": "[Compound 67, (S)-2-(1-acryloyl-4-(7-(8-methylnaphthalen-1-yl)-2-((1-(pyrrolidin-1-ylmethyl)cyclopropyl)methoxy)-5,6,7,8-tetrahydropyrido[3,4-d]pyrimidin-4-yl)piperazin-2-yl)acetonitrile]", "values": [
      {"measurement": "TGI %", "setting": "[1]; Table 3, 10 mg/kg, QD", "value": 106.1, "unit": "%"},
      {"measurement": "Tumor volume at the end (Day 22)", "setting": "[1]; Table 3, 10 mg/kg, QD", "value": 114, "unit": "mm^3"},
      {"measurement": "Tumor volume at the start", "setting": "[1]; Table 3, 10 mg/kg, QD", "value": 188, "unit": "mm^3"},
      {"measurement": "IC50", "setting": "[2]", "value": 0.0224, "unit": "µM"},
      {"measurement": "IC50", "setting": "[3]", "value": 0.00184, "unit": "µM"},
      {"measurement": "IC50", "setting": "[4]", "value": 0.0204, "unit": "µM"}
    ]},
    {"smiles": "Cc1cccc2cccc(N3CCc4c(nc(OCC5(CN(C)C)CC5)nc4N4CCN(C(=O)/C=C/CF)[C@@H](CC#N)C4)C3)c12", "note": "[Compound 68, (S,E)-2-(4-(2-((1-((dimethylamino)methyl)cyclopropyl)methoxy)-7-(8-methylnaphthalen-1-yl)-5,6,7,8-tetrahydropyrido[3,4-d]pyrimidin-4-yl)-1-(4-fluorobut-2-enoyl)piperazin-2-yl)acetonitrile]", "values": [
      {"measurement": "TGI %", "setting": "[1]; Table 2, 10 mg/kg, BID", "value": 82.6, "unit": "%"},
      {"measurement": "Tumor volume at the end (Day 22)", "setting": "[1]; Table 2, 10 mg/kg, BID", "value": 490, "unit": "mm^3"},
      {"measurement": "Tumor volume at the start", "setting": "[1]; Table 2, 10 mg/kg, BID", "value": 191, "unit": "mm^3"},
      {"measurement": "IC50", "setting": "[2]", "value": 0.0693, "unit": "µM"},
      {"measurement": "IC50", "setting": "[3]", "value": 0.0016, "unit": "µM"},
      {"measurement": "IC50", "setting": "[4]", "value": 0.0515, "unit": "µM"}
    ]},
    {"smiles": "C=C(F)C(=O)N1CCN(c2nc(OCC3(CN(C)C)CC3)nc3c2CCN(c2cccc4cccc(C)c24)C3)C[C@@H]1CC#N", "note": "[Compound 83, (S)-2-(4-(2-((1-((dimethylamino)methyl)cyclopropyl)methoxy)-7-(8-methylnaphthalen-1-yl)-5,6,7,8-tetrahydropyrido[3,4-d]pyrimidin-4-yl)-1-(2-fluoroacryloyl)piperazin-2-yl)acetonitrile]", "values": [
      {"measurement": "TGI %", "setting": "[1]; Table 2, 10 mg/kg, BID", "value": 89.4, "unit": "%"},
      {"measurement": "Tumor volume at the end (Day 22)", "setting": "[1]; Table 2, 10 mg/kg, BID", "value": 374, "unit": "mm^3"},
      {"measurement": "Tumor volume at the start", "setting": "[1]; Table 2, 10 mg/kg, BID", "value": 191, "unit": "mm^3"},
      {"measurement": "IC50", "setting": "[2]", "value": 0.19, "unit": "µM"},
      {"measurement": "IC50", "setting": "[3]", "value": 0.0039, "unit": "µM"},
      {"measurement": "IC50", "setting": "[4]", "value": 0.116, "unit": "µM"}
    ]},
    {"smiles": "Cc1cccc2cccc(N3CCc4c(nc(OCC5(CN6CCCC6)CC5)nc4N4CCN(C(=O)/C=C/CN(C)C)C(CC#N)C4)C3)c12", "note": "(centres unmarked) [Compound 86, (E)-2-(1-(4-(dimethylamino)but-2-enoyl)-4-(7-(8-methylnaphthalen-1-yl)-2-((1-(pyrrolidin-1-ylmethyl)cyclopropyl)methoxy)-5,6,7,8-tetrahydropyrido[3,4-d]pyrimidin-4-yl)piperazin-2-yl)acetonitrile]", "values": [
      {"measurement": "IC50", "setting": "[2]", "value": 0.131, "unit": "µM"},
      {"measurement": "IC50", "setting": "[3]", "value": "> 0.5", "unit": "µM"},
      {"measurement": "IC50", "setting": "[4]", "value": 0.103, "unit": "µM"}
    ]},
    {"smiles": "C=C(F)C(=O)N1CCN(c2nc(OCC3CCCN3C)nc3c2CCN(c2cccc4cccc(Cl)c24)C3)C[C@@H]1CC#N", "note": "(some centres unmarked) [MRTX 849, MRTX849, reference compound]", "values": [
      {"measurement": "TGI %", "setting": "[1]; Table 2, 10 mg/kg, QD", "value": 79.0, "unit": "%"},
      {"measurement": "Tumor volume at the end (Day 22)", "setting": "[1]; Table 2, 10 mg/kg, QD", "value": 553, "unit": "mm^3"},
      {"measurement": "TGI %", "setting": "[1]; Table 3, 10 mg/kg, QD", "value": 86.3, "unit": "%"},
      {"measurement": "Tumor volume at the end (Day 22)", "setting": "[1]; Table 3, 10 mg/kg, QD", "value": 355, "unit": "mm^3"},
      {"measurement": "Tumor volume at the start", "setting": "[1]; Table 3, 10 mg/kg, QD", "value": 188, "unit": "mm^3"}
    ]}
  ]
}
